Assay results as given in patent publication US6077503A, “Skin whitener composition containing mercaptodextran” (Amway Corporation, priority 1997, dated 2000).

System: tyrosinase from mushroom
Test: Inhibition of mushroom tyrosinase (tyrosine substrate, absorbance at 475 nm after 24 hours)
Assay type: biochemical
Method: A buffer solution A containing 50 mM sodium acetate was prepared to yield a 6.8 pH. A tryosine solution was prepared by adding 15 mg of tyrosine to 100 ml of buffer solution A. A tyrosinase solution was prepared by adding 11.5 mg tyrosinase from mushroom (Serva Art. 37618, 72 μ/mg) in 1.2 ml. of buffer solution A. A test tube was charged with 2.7 ml of buffer solution A and 0.4 ml. water to define a blank. Similarly, another test tube was charged with 2.7 ml. of the tyrosine solution, 0.3 ml of water, and 0.1 ml of the tyrosinase solution to define a reference. The samples were stored for 24 hours at a temperature between 23° C. and 25° C. The absorbency of the reference was measured at 475 nm with a spectrophotometer and the absorbancy was set to zero. […] A test tube was charged with 2.7 ml of the tyrosine solution, 0.1 ml. of the tyrosinase solution and 1% mercaptodextran having a molecular weight of about 10,000 from Pharmacia Biotech. The sample was stored for 24 hours at a temperature between 23° C. and 25° C. The absorbancy of was measured at 24 hours. The percent inhibition of the tyrosinase of was calculated as follows: [formula]

[1] = Example 1 / Table 1, whitener 1.0 wt %, 24 hours at 23-25° C., pH 6.8

| Compound | Percent inhibition (24 hours) [1] | Percent inhibition (24 hours) (Example 2 / Table 2, whitening agent 1.0 wt %, 24 hours) |
| --- | --- | --- |
| O=c1cc(CO)occ1O [Kojic Acid] | 87.8% | 90.9% |
| O=c1oc2cc(O)ccc2s1 [Tioxolone] | 0.0% |  |
